Source: patent US6900184B2, “Compositions containing pipercillin and tazobactam useful for injection” (Wyeth Holdings Corporation, priority 2003, dated 2005)

Test: Light obscuration particulate testing (HIAC-3000, based on USP 788), at time zero and 24 hours
Assay type: physicochemical
Settings: in Zosyn solutions, summary of Table 1
Method: Samples are prepared according to the compositions described in Table I. […] The fluid in the bag is mixed with gentle inversions for about 30 seconds. • The bags are labeled with identity and reconstitution time. • When added, aminoglycosides are added immediately. The fluid in the bag is mixed with gentle inversions for about 30 seconds. • A 50 ml sample is drawn with a 60 cc syringe fitted with a 21-gauge needle. • A clean, particle free vial is rinsed with water for injection, and then filled with about 45 ml of the sample. HIAC testing is performed immediately. • Into a suitably sized sample vial, a 3 ml sample is prepared for HPLC testing. HPLC testing is begun within an hour of sample preparation (Table 1). The remainder of the Zosyn® admixture samples (about 50 ml) are stored in a closed cabinet in the laboratory, at ambient temperature and tested again 24 hours later (Table 1). Light obscuration testing is performed using a HIAC-3000. A testing method, based on USP 788 is followed for the analysis. (See TABLE I) The data is reported on a particle per ml basis. […] The same sample was resampled and analyzed 24 hours after the first test. A summary of the HIAC data is provided as Table I.

Compound | effect of added EDTA (edetate disodium dihydrate) on number of particles generated | effect of added aminoglycoside on number of particles generated
O=C(O)CN(CCN(CC(=O)O)CC(=O)O)CC(=O)O [EDTA, ethylene diamine tetraacetic acid] | significantly reduces the number of particles generated in 24 hours | 
NCC[C@H](O)C(=O)N[C@@H]1C[C@H](N)[C@@H](O[C@H]2O[C@H](CN)[C@@H](O)[C@H](O)[C@H]2O)[C@H](O)[C@H]1O[C@H]1O[C@H](CO)[C@@H](O)[C@H](N)[C@H]1O [amikacin] |  | increases the number of particles generated in 24 hours
